In patent US20180360898A1, “USE OF CRANBERRY DERIVED PHENOLIC COMPOUNDS AS ANTIBIOTIC SYNERGIZING AGENT AGAINST PATHOGENIC BACTERIA” (THE ROYAL INSTITUTION FOR THE ADVANCEMENT OF …, priority 2015, published 2018):

Assays:
E. coli CFT073 = test: Minimum Inhibitory Concentration (MIC); assay type: cell-based, Escherichia coli; details: alone, MHB-II broth
Description: (§1) Pure stock cultures were maintained at −80° C. in 30% (v/v) frozen glycerol solution. Starter cultures were prepared by streaking frozen cultures onto LB agar (LB broth: tryptone 10 g/L, yeast extract 5 g/L and NaCl 5 g/L, supplemented with 1.5 w/v % agar (Fisher Scientific, Canada)). After overnight incubation at 37° C., a single colony was inoculated into 10 mL of LB broth and the culture was incubated at 37° C. on an orbital shaker at 150 rpm for time lengths specific to each experiment. LB broth was used for bacterial culture in all experiments unless otherwise specified.
(§2) Minimum Inhibitory Concentration (MIC) was determined by preparing two-fold serial dilutions of each cPACs fraction and antibiotic in Mueller Hinton broth adjusted with Ca^2+ and Mg^2+ (MHB-II, Oxoid, Fisher Scientific, Canada). […] Bacterial growth was assessed by (i) monitoring the optical density of the cell suspension in each well at 600 nm (OD600 nm), and (ii) the resazurin microtitre plate assay. In the resazurin microtitre plate assay, each well of a microtitre plate was supplemented with 20 μM resazurin, incubated in dark for 20 min at room temperature, followed by fluorescence measurements at ex/em 570/590 nm using a TECAN Infinite M200 Pro microplate reader (Tecan Group Ltd., Switzerland). […]

P. aeruginosa PAO1 = test: Minimum Inhibitory Concentration (MIC); assay type: cell-based, Pseudomonas aeruginosa; details: alone, MHB-II broth
Description: as §1, §2

## gentamicin
E. coli CFT073
  MIC: 2 µg/mL
P. aeruginosa PAO1
  MIC: 2 µg/mL
